Measured values published in US20030055004A1, “GPE analogs and peptidominetics” (priority 2001, published 2003).

Tested on: cortical cultures
Assay: Neuroprotection in cortical cultures after toxin (okadaic acid), MTT survival assay
Assay type: cell-based, rat
Conditions: higher concentrations of GPE, FIG. 12, 24 hrs incubation, 8DIV
Procedure: One cortical hemisphere from a postnatal day 1 rat was used and collected into 4 ml of DMEM. Trituration was done with a 5 ml glass pipette and subsequently through an 18 gauge needle. Afterwards, the cell suspension was sieved through a 100 μm cell strainer and washed in 50 ml DMEM (centrifugation for 5 min at 250 g). […] After cells reached confluence, they were washed three times with PBS and adjusted to Neurobasal/B27 and incubated for another 3 days. This supernatant was frozen for transient storage until usage at −80° C. A dam was sacrificed by CO2-treatment in a chamber for up to 4 minutes and was prepared then for cesarean section. After surgery, the embryos were removed from their amniotic sacs, decapitated and the heads put on ice in DMEM/F12 medium for striatum and PBS+0.65% D(+)-glucose for cortex. The two cortical hemispheres were carefully removed by a spatula from the whole brain with the ventral side facing upside into a PBS +0.65% D(+)-glucose containing petri dish. […] Cells were counted and adjusted to 50,000 cells per 60 μl. […] The survival rate was determined by a colorimetric end-point MTT-assay at 595 nm in a multi-well plate reader. For the cerebellar microexplants four windows (field of 0.65 mm^2) with highest cell density were chosen and cells displaying neurite outgrowth were counted.

In the case of NCC(=O)N1CCC[C@H]1C(=O)N[C@@H](CCC(=O)O)C(=O)O [GPE, glycyl-L-prolyl-L-glutamic acid], the neuroprotection is reported as 64%.
